# Measurements reported in patent US6573248B2, “Monocyclic L-nucleosides, analogs and uses thereof” (ICN Pharmaceuticals, Inc., priority 1996, dated 2003).
row,Compound,melting point [°C]
1,"NC(=O)c1cn([C@H]2O[C@@H](CO)[C@H](O)[C@@H]2O)ccc1=O [Compound 34, 1-β-L-ribofuranosylpyridine-4-one-3-carboxamide]",209 to 211
2,"NC(=O)c1nn([C@H]2O[C@@H](CO)[C@H](O)[C@@H]2O)nc1C(N)=O [Compound 32, 2-β-L-Ribofuranosyl-1,2,3-triazole-4,5-dicarboxamide]",210 to 212
3,"NC(=O)c1nc([C@H]2O[C@@H](CO)[C@H](O)[C@@H]2O)n[nH]1 [Compound 68, 3-β-L-Ribofuranosyl-1,2,4-triazole-5-carboxamide]",193 to 195

# More lines, now with the values ahead:
row,melting point [°C],Compound
1,224 to 226,"NC(=O)c1ncn([C@H]2O[C@@H](CO)[C@H](O)[C@@H]2O)c1C(N)=O [Compound 48, 1-β-L-Ribofuranosylimidazole-4,5-dicarboxamide]"
2,175 to 177,"Cc1cc(=O)[nH]c(=O)n1[C@H]1O[C@@H](CO)[C@H](O)[C@@H]1O [Compound 41, 1-β-L-Ribofuranosyl-6-methyluracil]"
